# Test results reported in patent publication US20110059033A1, “ULTRAVIOLET ABSORBING COMPOSITION” (FUJIFILM Corporation, priority 2009, published 2011).
# Assay: Maximum absorption wavelength (λmax) of the illustrative compounds in solvent
# Type: physicochemical
# Conditions: EtOAc
row,maximum absorption wavelength (λmax) [nm],SMILES
1,382,CCCCC(CC)COc1ccc(OCC(CC)CCCC)c2c1SC(=C(C#N)C(=O)C(C)(C)C)S2 (stereo not drawn) [S-06]
2,382,CC(CCOc1ccc(OCCC(C)CC(C)(C)C)c2c1SC(=C(C#N)C(=O)C(C)(C)C)S2)CC(C)(C)C (stereo not drawn) [S-28]
3,369,CC(CCOc1ccc(OCCC(C)CC(C)(C)C)c2c1SC(=C(C#N)C#N)S2)CC(C)(C)C (stereo not drawn) [S-27]
4,375,CCCCC(CC)C(=O)Oc1ccc(OC(=O)C(CC)CCCC)c2c1SC(=C(C#N)C(=O)C(C)(C)C)S2 (stereo not drawn) [S-01]
5,369,CCCCC(CC)COc1ccc(OCC(CC)CCCC)c2c1SC(=C(C#N)C#N)S2 (stereo not drawn) [S-26]
6,357,CCCCC(CC)C(=O)Oc1ccc(OC(=O)C(CC)CCCC)c2c1SC(=C(C#N)C(N)=O)S2 (stereo not drawn) [S-20]
7,363,CCCCC(CC)C(=O)Oc1ccc(OC(=O)C(CC)CCCC)c2c1SC(=C(C#N)C#N)S2 (stereo not drawn) [S-17]
8,382,CC(C)(C)C(=O)C(C#N)=C1Sc2c(OCCO)ccc(OCCO)c2S1 [S-29]

# Same assay, conditions: MeOH
row,maximum absorption wavelength (λmax) [nm],SMILES
1,369,N#CC(C#N)=C1Sc2c(OCCO)ccc(OCCO)c2S1 [S-30]
